Data taken from the NIST ThermoML archive (doi:10.1016/j.jct.2018.10.006).
Numbers after ± are expanded uncertainties.

Experiment: Molar enthalpy of transition or fusion
Conditions: Crystal 2; DSC

Molar enthalpy of transition or fusion: 0.336 ± 0.0287 kcal/mol
SMILES: O=P([O-])([O-])[O-].[Cs+].[Ni+2] [cesium nickel monophosphate]
